US20240238424A1, “HETEROBIFUNCTIONAL COMPOUNDS AND METHODS OF TREATING DISEASE” (Halda Therapeutics OpCo, Inc., priority 2021, published 2024)

target: T1, GSPT1 (Homo sapiens, UniProt P15170+Q96SW2); assay: GSPT1 HiBit degradation assay; assay type: cell-based; conditions: Table 3A; HEK293 LgBiT cells expressing GSPT1_HiBiT, luminescence after 6 hours
T1 construct: host or cells: HEK293 LgBiT cell line
Text: Promega developed a HEK293 cell line that constitutively expresses LgBiT protein and GSPT1_HiBiT fusion protein. When both proteins are present, the HiBiT portion of the fusion protein combines with LgBiT protein to form a functional luciferase enzyme. Endurazine, a cell permeable small molecule, is converted by cellular esterases into furimazine, which the luciferase enzyme uses as a substrate to generate luminescence. When GSPT1 is degraded, the HiBit is also degraded. This prevents formation of fully functional luciferase, leading to a loss in luminescence. GSPT1 degradation therefore correlates with a decrease in luminescence and can be measured continuously over time. The concentration of compound at which 50% GSPT1 degradation occurs (DC50) was calculated using this system.
• HEK293 LgBiT Cell line (Promega Custom) • Endurazine Substrate (Promega Cat. #N2570) • DMEM (Gibco Cat. #11995) • Penicillin/Streptomycin (Gibco Cat. #15140-122) • Heat Inactivated Fetal Bovine Serum (Gibco Cat. #A38400-01) • Hygromycin B (Gibco Cat. #10-687-010) • 384 Well TC Treated White Microplate (Perkin Elmer Cat. #6007680)
HEK293 LgBiT cells were cultured in DMEM Media supplemented with 10% FBS, 5% Pen/Strep, 200 μg/ml hygromycin and stored in an incubator set at 37° C. and 5% CO2. 18-24 hours prior to compound treatment, HEK293 LgBiT cells were seeded at 1000 cells/well in a 384-well microplate in 25 μl complete media. The plate was spun at 300 g for 30 seconds and stored in the incubator overnight. The next day, compounds were titrated in DMSO and added to media supplemented with endurazine substrate. A 25 ul aliquot of 2× compound/endurazine in media were then added to the 384-well microplate with seeded cells. (Endurazine was used at a final concentration of 0.5×). The plate was spun at 300 g for 30 seconds and stored in the incubator. After 6 hours the plate was read on a Perkin Elmer MultiMode Plate Reader Envision 2105 to measure luminescence signal.

T1 sequence (P15170 whole entry): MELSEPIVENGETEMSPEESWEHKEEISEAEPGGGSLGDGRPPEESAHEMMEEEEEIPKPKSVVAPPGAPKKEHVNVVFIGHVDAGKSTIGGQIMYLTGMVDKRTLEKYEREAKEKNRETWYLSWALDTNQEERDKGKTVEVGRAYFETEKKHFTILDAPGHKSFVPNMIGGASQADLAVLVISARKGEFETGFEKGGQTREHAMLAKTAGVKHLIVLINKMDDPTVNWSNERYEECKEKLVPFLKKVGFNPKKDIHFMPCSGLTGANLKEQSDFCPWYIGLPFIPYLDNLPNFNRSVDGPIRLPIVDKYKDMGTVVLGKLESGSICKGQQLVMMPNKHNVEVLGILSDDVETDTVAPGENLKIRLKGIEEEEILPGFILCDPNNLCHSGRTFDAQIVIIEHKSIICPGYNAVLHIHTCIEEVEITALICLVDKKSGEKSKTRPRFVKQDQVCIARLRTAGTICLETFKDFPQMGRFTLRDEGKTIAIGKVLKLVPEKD
T1 sequence (Q96SW2 whole entry): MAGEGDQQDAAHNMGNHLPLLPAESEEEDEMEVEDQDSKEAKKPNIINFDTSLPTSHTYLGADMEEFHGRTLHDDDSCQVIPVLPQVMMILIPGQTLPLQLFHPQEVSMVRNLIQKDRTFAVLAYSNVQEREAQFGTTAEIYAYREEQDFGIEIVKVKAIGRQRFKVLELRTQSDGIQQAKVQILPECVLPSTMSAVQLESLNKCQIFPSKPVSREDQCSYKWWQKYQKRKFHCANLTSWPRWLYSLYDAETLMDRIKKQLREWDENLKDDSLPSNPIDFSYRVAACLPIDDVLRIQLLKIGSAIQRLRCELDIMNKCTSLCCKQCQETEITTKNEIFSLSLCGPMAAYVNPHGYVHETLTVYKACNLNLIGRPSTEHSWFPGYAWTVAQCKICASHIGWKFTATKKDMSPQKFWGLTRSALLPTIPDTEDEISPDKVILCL
T1 sequence (Q16531 whole entry partner): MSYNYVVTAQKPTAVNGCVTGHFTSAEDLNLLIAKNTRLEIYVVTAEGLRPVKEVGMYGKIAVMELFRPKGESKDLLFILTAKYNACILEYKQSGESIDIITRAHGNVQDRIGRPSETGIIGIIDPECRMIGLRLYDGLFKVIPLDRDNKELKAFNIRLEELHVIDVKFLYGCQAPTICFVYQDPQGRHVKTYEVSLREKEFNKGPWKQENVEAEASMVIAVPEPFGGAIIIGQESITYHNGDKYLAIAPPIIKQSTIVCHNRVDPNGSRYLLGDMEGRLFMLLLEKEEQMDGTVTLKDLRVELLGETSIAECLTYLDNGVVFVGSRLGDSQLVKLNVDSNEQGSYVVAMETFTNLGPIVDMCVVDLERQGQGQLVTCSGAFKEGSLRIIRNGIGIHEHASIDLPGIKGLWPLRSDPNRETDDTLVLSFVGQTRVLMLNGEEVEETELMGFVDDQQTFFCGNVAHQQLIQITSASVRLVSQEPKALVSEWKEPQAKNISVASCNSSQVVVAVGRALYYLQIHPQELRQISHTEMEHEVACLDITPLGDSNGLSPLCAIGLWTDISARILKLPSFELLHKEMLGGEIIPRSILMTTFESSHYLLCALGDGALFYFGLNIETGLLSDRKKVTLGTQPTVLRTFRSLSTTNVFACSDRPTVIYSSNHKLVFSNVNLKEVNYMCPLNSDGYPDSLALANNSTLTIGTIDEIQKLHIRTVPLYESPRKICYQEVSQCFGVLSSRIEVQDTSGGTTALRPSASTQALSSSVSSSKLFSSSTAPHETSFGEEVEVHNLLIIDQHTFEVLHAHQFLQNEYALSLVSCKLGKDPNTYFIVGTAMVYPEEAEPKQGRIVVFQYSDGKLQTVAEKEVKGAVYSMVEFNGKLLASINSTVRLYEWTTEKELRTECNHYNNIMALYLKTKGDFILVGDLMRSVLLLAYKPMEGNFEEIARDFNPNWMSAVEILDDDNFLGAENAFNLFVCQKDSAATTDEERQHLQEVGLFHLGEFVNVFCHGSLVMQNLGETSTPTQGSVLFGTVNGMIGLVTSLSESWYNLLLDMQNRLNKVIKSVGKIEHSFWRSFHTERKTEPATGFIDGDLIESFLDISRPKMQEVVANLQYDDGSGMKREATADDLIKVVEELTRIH

SMILES | DC50
C=C(F)C(=O)N1CCN(c2nc(OC[C@@H]3CCCN3CCCOCCOCCOCCOCCOCCOCCOCCOCCCCCCCCc3cc(Cl)cc(NC(=O)NCc4ccc5c(c4)CN(C4CCC(=O)NC4=O)C5=O)c3)nc3c2CCN(c2cccc4cccc(Cl)c24)C3)C[C@@H]1CC#N (stereo partly shown) [Compound I-78] | < 0.25 µM
C=C(F)C(=O)N1CCN(c2nc(OC[C@@H]3CCCN3CCCOCCOCCOCCOCCOCCOCCOCCOCCOCCOCCCCCCCCc3cc(Cl)cc(NC(=O)NCc4ccc5c(c4)CN(C4CCC(=O)NC4=O)C5=O)c3)nc3c2CCN(c2cccc4cccc(Cl)c24)C3)C[C@@H]1CC#N (stereo partly shown) [Compound I-80] | 0.25 to 5 µM
CN(C/C=C/C(=O)N1CCN(c2nc(OC[C@@H]3CCCN3C)nc3c2CCN(c2cccc4cccc(Cl)c24)C3)C[C@@H]1CC#N)CCOCCOCCOCCOCCCCCCCCc1cc(Cl)cc(NC(=O)NCc2ccc3c(c2)CN(C2CCC(=O)NC2=O)C3=O)c1 (stereo partly shown) [Compound I-81] | < 0.25 µM
Nc1ncnc2c1c(-c1ccc(Oc3ccccc3)cc1)nn2[C@@H]1CCCN(C(=O)/C=C/COCCOCCOCCOCCOCCCCCCCCc2cc(Cl)cc(NC(=O)NCc3ccc4c(c3)CN(C3CCC(=O)NC3=O)C4=O)c2)C1 (stereo partly shown) [Compound I-82] | < 0.25 µM
CN(C/C=C/C(=O)N1CCC[C@@H](n2nc(-c3ccc(Oc4ccccc4)cc3)c3c(N)ncnc32)C1)CCOCCOCCOCCOCCOCCOCCOCCOCCOCCOCCCCCCCCc1cc(Cl)cc(NC(=O)NCc2ccc3c(c2)CN(C2CCC(=O)NC2=O)C3=O)c1 (stereo partly shown) [Compound I-83] | 0.25 to 5 µM
CN(C/C=C/C(=O)N1CCN(c2nc(OC[C@@H]3CCCN3C)nc3c2CCN(c2cccc4cccc(Cl)c24)C3)C[C@@H]1CC#N)CCOCCOCCOCCOCCOCCOCCCCCCCCc1cc(Cl)cc(NC(=O)NCc2ccc3c(c2)CN(C2CCC(=O)NC2=O)C3=O)c1 (stereo partly shown) [Compound I-84] | < 0.25 µM
Nc1ncnc2c1c(-c1ccc(Oc3ccccc3)cc1)nn2[C@@H]1CCCN(C(=O)/C=C/COCCOCCOCCOCCOCCOCCOCCCCCCCCc2cc(Cl)cc(NC(=O)NCc3ccc4c(c3)CN(C3CCC(=O)NC3=O)C4=O)c2)C1 (stereo partly shown) [Compound I-85] | < 0.25 µM
CN(C/C=C/C(=O)N1CCN(c2nc(OC[C@H]3CCCN3C)nc3c2CCN(c2cccc4cccc(Cl)c24)C3)C[C@@H]1CC#N)CCOCCOCCOCCOCCOCCOCCOCCOCCCCCCCCc1cc(Cl)cc(NC(=O)NCc2ccc3c(c2)CN(C2CCC(=O)NC2=O)C3=O)c1 (stereo partly shown) [Compound I-86] | 0.25 to 5 µM
CN(C/C=C/C(=O)N1CCN(c2nc(OC[C@@H]3CCCN3C)nc3c2CCN(c2cccc4cccc(Cl)c24)C3)C[C@@H]1CC#N)CCOCCOCCOCCOCCOCCOCCOCCOCCOCCOCCCCCCCCc1cc(Cl)cc(NC(=O)NCc2ccc3c(c2)CN(C2CCC(=O)NC2=O)C3=O)c1 (stereo partly shown) [Compound I-87] | 0.25 to 5 µM
CN(C/C=C/C(=O)N1CCN(c2nc(OC[C@@H]3CCCN3C)nc3c2CCN(c2cccc4cccc(Cl)c24)C3)C[C@@H]1CC#N)CCOCCOCCOCCOCCOCCOCCOCCOCCOCCOCCOCCOCCCCCCCCc1cc(Cl)cc(NC(=O)NCc2ccc3c(c2)CN(C2CCC(=O)NC2=O)C3=O)c1 (stereo partly shown) [Compound I-88] | 0.25 to 5 µM
Nc1ncnc2c1c(-c1ccc(Oc3ccccc3)cc1)nn2[C@@H]1CCCN(C(=O)/C=C/COCCOCCOCCOCCOCCOCCOCCOCCOCCCCCCCCc2cc(Cl)cc(NC(=O)NCc3ccc4c(c3)CN(C3CCC(=O)NC3=O)C4=O)c2)C1 (stereo partly shown) [Compound I-93] | < 0.25 µM
Nc1ncnc2c1c(-c1ccc(Oc3ccccc3)cc1)nn2[C@@H]1CCCN(C(=O)/C=C/COCCOCCOCCOCCOCCOCCOCCOCCOCCOCCOCCCCCCCCc2cc(Cl)cc(NC(=O)NCc3ccc4c(c3)CN(C3CCC(=O)NC3=O)C4=O)c2)C1 (stereo partly shown) [Compound I-94] | 0.25 to 5 µM
Cc1c(NC(=O)c2ccc(C3CC3)cc2F)cc(F)cc1-c1ncnc(N)c1OCCN(C)C(=O)/C=C/CN(C)CCOCCOCCOCCOCCCCCCCCc1cc(Cl)cc(NC(=O)NCc2ccc3c(c2)CN(C2CCC(=O)NC2=O)C3=O)c1 (stereo not shown) [Compound I-96] | < 0.25 µM
Cc1c(NC(=O)c2ccc(C3CC3)cc2F)cc(F)cc1-c1ncnc(N)c1OCCN(C)C(=O)/C=C/CN(C)CCOCCOCCOCCOCCOCCOCCCCCCCCc1cc(Cl)cc(NC(=O)NCc2ccc3c(c2)CN(C2CCC(=O)NC2=O)C3=O)c1 (stereo not shown) [Compound I-97] | < 0.25 µM
Cc1c(NC(=O)c2ccc(C3CC3)cc2F)cc(F)cc1-c1ncnc(N)c1OCCN(C)C(=O)/C=C/CN(C)CCOCCOCCOCCOCCOCCOCCOCCOCCOCCOCCCCCCCCc1cc(Cl)cc(NC(=O)NCc2ccc3c(c2)CN(C2CCC(=O)NC2=O)C3=O)c1 (stereo not shown) [Compound I-98] | < 0.25 µM
C=C(F)C(=O)N1CCN(c2nc(OC[C@@H]3C[C@@H](OCCOCCOCCOCCOCCCCCCCCc4cccc(NC(=O)NCc5ccc6c(c5)CN(C5CCC(=O)NC5=O)C6=O)c4)CN3C)nc3c2CCN(c2cccc4cccc(Cl)c24)C3)C[C@@H]1CC#N (stereo partly shown) [Compound I-99] | 0.25 to 5 µM

SMILES | DC50
CCC(=O)N1CCN(c2nc(OC[C@@H]3CCCN3CCOCCOCCOCCOCCOCCOCCOCCOCCOCCOCCOCCOCCOCCOCCCCCCCCc3cc(Cl)cc(NC(=O)NCc4ccc5c(c4)CN(C4CCC(=O)NC4=O)C5=O)c3)nc3c2CCN(c2cccc4cccc(Cl)c24)C3)CC1CC#N (stereo partly shown) [Compound I-103] | 0.25 to 5 µM
CN(C/C=C/C(=O)N1CCC[C@@H](n2nc(-c3ccc(Oc4ccccc4)cc3)c3c(N)ncnc32)C1)CCOCCOCCOCCOCCOCCCCCc1cc(Cl)cc(NC(=O)NCc2ccc3c(c2)CN(C2CCC(=O)NC2=O)C3=O)c1 (stereo partly shown) [Compound I-104] | 0.25 to 5 µM
Cc1c(NC(=O)c2ccc(C3CC3)cc2F)cc(F)cc1-c1ncnc(N)c1OCCN(C)C(=O)/C=C/CN(C)CCOCCOCCOCCOCCOCCCCCc1cc(Cl)cc(NC(=O)NCc2ccc3c(c2)CN(C2CCC(=O)NC2=O)C3=O)c1 (stereo not shown) [Compound I-105] | < 0.25 µM
CCC(=O)N1CCN(c2nc(OC[C@@H]3CCCN3CCOCCOCCOCCOCCOCCOCCOCCOCCOCCOCCOCCOCCOCCOCCCCCCCCc3cc(Cl)cc(NC(=O)NCc4ccc5c(c4)CN(C4CCC(=O)NC4=O)C5=O)c3)nc3c2CCN(c2cccc4cccc(Cl)c24)C3)C[C@@H]1CC#N (stereo partly shown) [Compound I-106] | 0.25 to 5 µM
CN(C/C=C/C(=O)N1CCN(c2nc(OC[C@@H]3CCCN3C)nc3c2CCN(c2cccc4cccc(Cl)c24)C3)C[C@@H]1CC#N)CCOCCOCCOCCOCCOCCCCCc1cc(Cl)cc(NC(=O)NCc2ccc3c(c2)CN(C2CCC(=O)NC2=O)C3=O)c1 (stereo partly shown) [Compound I-108] | 0.25 to 5 µM
CN(C/C=C/C(=O)N1CCC[C@@H](n2nc(-c3ccc(Oc4ccccc4)cc3)c3c(N)ncnc32)C1)CCOCCOCCOCCCCCc1cc(Cl)cc(NC(=O)NCc2ccc3c(c2)CN(C2CCC(=O)NC2=O)C3=O)c1 (stereo partly shown) [Compound I-110] | 0.25 to 5 µM
CN(C/C=C/C(=O)N1CCC[C@@H](n2nc(-c3ccc(Oc4ccccc4)cc3)c3c(N)ncnc32)C1)CCOCCOCCOCCOCCOCCOCCOCCCCCc1cc(Cl)cc(NC(=O)NCc2ccc3c(c2)CN(C2CCC(=O)NC2=O)C3=O)c1 (stereo partly shown) [Compound I-111] | 0.25 to 5 µM
Cc1c(NC(=O)c2ccc(C3CC3)cc2F)cc(F)cc1-c1ncnc(N)c1OCCN(C)C(=O)/C=C/CN(C)CCOCCOCCOCCCCCc1cc(Cl)cc(NC(=O)NCc2ccc3c(c2)CN(C2CCC(=O)NC2=O)C3=O)c1 (stereo not shown) [Compound I-112] | 0.25 to 5 µM
Cc1c(NC(=O)c2ccc(C3CC3)cc2F)cc(F)cc1-c1ncnc(N)c1OCCN(C)C(=O)/C=C/CN(C)CCOCCOCCOCCOCCOCCOCCOCCCCCc1cc(Cl)cc(NC(=O)NCc2ccc3c(c2)CN(C2CCC(=O)NC2=O)C3=O)c1 (stereo not shown) [Compound I-113] | 0.25 to 5 µM
Cc1ccc(NC(=O)NC(CCCCCOCCOCCOCCOCCOCCN(C)C/C=C/C(=O)N2CCN(c3nc(OC[C@@H]4CCCN4C)nc4c3CCN(c3cccc5cccc(Cl)c35)C4)C[C@@H]2CC#N)c2ccc3c(c2)CN(C2CCC(=O)NC2=O)C3=O)cc1Cl (stereo partly shown) [Compound I-114] | > 10 µM
Cc1ccc(NC(=O)NC(CCCCCOCCOCCOCCN(C)C/C=C/C(=O)N2CCN(c3nc(OC[C@@H]4CCCN4C)nc4c3CCN(c3cccc5cccc(Cl)c35)C4)C[C@@H]2CC#N)c2ccc3c(c2)CN(C2CCC(=O)NC2=O)C3=O)cc1Cl (stereo partly shown) [Compound I-115] | 5 to 10 µM
CN(C/C=C/C(=O)N1CCC[C@@H](n2nc(-c3ccc(Oc4ccccc4)cc3)c3c(N)ncnc32)C1)CCOCCOCCOCCOCCOCCOCCOCCOCCOCCCCCc1cc(Cl)cc(NC(=O)NCc2ccc3c(c2)CN(C2CCC(=O)NC2=O)C3=O)c1 (stereo partly shown) [Compound I-117] | 5 to 10 µM
COc1cc(N2CCN(C(=O)COCCOCCOCCOCCOCCCCCc3cc(Cl)cc(NC(=O)NCc4ccc5c(c4)CN(C4CCC(=O)NC4=O)C5=O)c3)CC2)ccc1Nc1ncc(Cl)c(Nc2ccccc2P(C)(C)=O)n1 (stereo not shown) [Compound I-119] | 0.25 to 5 µM
COc1cc(N2CCN(C(=O)COCCOCCOCCCCCc3cc(Cl)cc(NC(=O)NCc4ccc5c(c4)CN(C4CCC(=O)NC4=O)C5=O)c3)CC2)ccc1Nc1ncc(Cl)c(Nc2ccccc2P(C)(C)=O)n1 (stereo not shown) [Compound I-121] | < 0.25 µM
C=CC(=O)NC1CN(c2nc(Nc3cn(CCOCCOCCOCCOCCOCCOCCOCCOCCOCCCCCc4cc(Cl)cc(NC(=O)NCc5ccc6c(c5)CN(C5CCC(=O)NC5=O)C6=O)c4)nc3OC)c3ncn(C)c3n2)C[C@H]1F (stereo partly shown) [Compound I-126] | 0.25 to 5 µM
